In assay [1] the test system is Abp1p SH3 domain (AbpSH3). As to the kind of experiment: Isothermal titration calorimetry of peptide binding to AbpSH3. Set-up: species or system yeast. The method, then: Binding isotherms were recorded as previously at 30°C [23]. Enthalpy changes were measured at 4 different temperatures (20, 25, 30, 35°C) and the slopes of temperature vs. enthalpy change were fit to yield the change in heat capacity. All samples were in 50 mM sodium phosphate, 100 mM NaCl, 1 mM EDTA pH 7.0. Errors are ±95% confidence intervals except the ΔCP values, which report the standard error of the least squared fit to the data (ΔH vs. temperature).

The test system of assay [2] is Abp1p SH3 domain (AbpSH3). As to the kind of experiment: Hydrogen exchange protection of AbpSH3 complexes by NMR. The class given is binding, yeast. Conditions: sum of log amide protection factors of SII residues; 99% peptide-saturated 100 µM AbpSH3 in D2O, pH 7.0, 18°C, HSQC every 20 minutes over 24 hours. The method, then:
All hydrogen exchange experiments were conducted in 50 mM sodium phosphate, 100 mM NaCl, 1 mM EDTA pH 7.0, 18°C. Based on the known binding constants, sufficient peptide was added to 100 µM AbpSH3 such that 99% saturation was achieved (this was confirmed by comparing the chemical shifts of previously recorded peptide-saturated samples) for 7 different AbpSH3 complexes (Table S4). The samples were lyophilized and resuspended in D2O, and ^1H-^15N HSQC spectra were recorded every 20 minutes over a period of 24 hours. Many peaks disappeared over time. Intensities of peaks were fit to exponential curves, to yield observed rate constants (kexchange) for each amide group. The rate constant was converted to log protection factor (P), log10(kintrinsic/kexchange) using values for amide protection of free amino acids (http://hx2.med.upenn.edu/download.html). […] These residues became protected to different degrees in the different complexes although they all still exchanged sufficiently fast for their rates to be accurately calculated within the timeframe of the experiment. The biggest difference for the sum between complexes is about 20, which corresponds to a residue ΔΔG of −2.8 kcal/mol, which is approximately the difference between the strongest and weakest peptide binding energy.

Assay [3] relates to Abp1p SH3 domain (AbpSH3). As to the kind of experiment: Co-linear chemical shift perturbation (CCSP) analysis of peptide-saturated AbpSH3 complexes by NMR. Type of assay: binding, yeast. The following applies: rank among the 24 complexes; >99% peptide-saturated. The method, then:
NMR experiments were carried out at 30°C on Varian 500 MHz spectrometers equipped with pulsed field gradients and a triple resonance probe with actively shielded z-gradients. Data were processed and analyzed using nmrPipe/nmrDraw and nmrView. All spectra were recorded in 50 mM sodium phosphate, 100 mM NaCl, 1 mM EDTA pH 7.0. ^1H-^15N HSQC spectra were collected using standard methods. ^1H-^13C HSQC spectra were recorded using constant time HSQC experiments.
AbpSH3 complexes were assigned using the established assignments of ArkA-bound and free AbpSH3 [8]; serial peptide additions were used to monitor the direction that the peaks moved to assign the final position of the SH3 resonances. […] The assignments were also compared to the previously determined ArkA-AbpSH3 complex resonances. […]
The combined ^1H and ^15N chemical shift differences (in ppm) between each pair of resonances that define the lines x, y and z were calculated using the following expression: δΔ = √((Nppm shift * 0.1)^2+(Hppm shift)^2), where Nppm shift is the difference in ppm in the nitrogen dimension and Hppm is the difference in ppm in the proton dimension. The perpendicular distance (p) between the resonance and the CCSP line was calculated in the following way: p = √(x^2−s^2), where x = length of line connecting resonance to peptide free resonance and s = scalar projection. […]

In assay [4] the target is T1, Abp1p SH3 domain (SH3 domain from the yeast Actin Binding Protein 1) (yeast, UniProt P15891 532-592).
T1 construct: 15N-labelled for the NMR work; also called AbpSH3
T1 sequence (looked up): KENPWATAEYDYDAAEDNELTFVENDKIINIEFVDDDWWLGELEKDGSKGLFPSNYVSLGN
As to the kind of experiment: NMR titration; 1H-15N HSQC of AbpSH3 (70-100 µM) with serial peptide additions to 99% or greater saturation; 30°C; 50 mM sodium phosphate, 100 mM NaCl, 1 mM EDTA pH 7.0. Conditions: both partners purified.

In the case of “PRR: 15-residue peptide found N-terminal to AbpSH3 (residues 516 to 530 in Abp1p) (Ac-AAPPPPPRRATPEKK-NH2)”, in assay [1] (ITC, enthalpy changes at 20, 25, 30, 35°C, slope of ΔH vs. temperature, 50 mM sodium phosphate, 100 mM NaCl, 1 mM EDTA pH 7.0), the “change in heat capacity (ΔCp) on complex formation” value is recorded as about 0 kcal/mol K. Also, in assay [1] (rank among the 24 complexes, ITC at 30°C), the binding energy result is “the lowest measured”. Also, the “SII hydrogen exchange protection (Σ LogP in SII)” value in assay [2] is on record as about 0. Also, the “CCSP values in AbpSH3” value in assay [3] is listed as “lowest”.

B1: PRR1, 15-residue peptide found N-terminal to AbpSH3 (residues 516 to 530 in Abp1p) (peptide, UniProt P15891 516-530, looked up)
peptide: Ac-AAPPPPPRRATPEKK-NH2
notes: residues 516 to 530 of yeast Abp1p, proline-rich region N-terminal to the SH3 domain, 15 residues; source: synthetic peptide (Biomer tech), purified to greater than 95% by HPLC
Take B1: in assay [4], the binding result was “binds”.
